In US12290521B2, “Methods and materials for identifying and treating BET inhibitor-resistant cancers” (Mayo Foundation for Medical Education and Research, priority 2018, dated 2025):
Residues, ends and D or L forms follow the SMILES beside them. *: point of attachment. Cbz = O=C(OCc1ccccc1)*

Key:
BRD2/3/4 = experiment: Western blot and RT-qPCR of BRD2/3/4 in LNCaP cells; format: cell-based; details: 8 hours, MLN4924 200 nM, Bortezomib 200 nM, MG132 20 μM
Procedure: (§1) Cell lysates or immunoprecipitates were subjected to SDS-PAGE, and proteins were transferred to nitrocellulose membranes (GE Healthcare Sciences). The membranes were blocked in Tris-buffered saline (TBS, pH 7.4) containing 5% non-fat milk and 0.1% Tween-20, washed twice in TBS containing 0.1% Tween-20, and incubated with primary antibody overnight at 4° C., followed by secondary antibody for 1 hour at room temperature. The proteins of interest were visualized using ECL chemiluminescence system (Santa Cruz Biotechnology). Densitometry analysis of protein bands was analyzed on the Gel-Pro Analyzer software.
(§2) Total RNA was isolated from transiently transfected cells using the Trizol reagent (Thermo Fisher Scientific), and cDNA was reverse-transcribed using the Superscript RT kit (TOYOBO, Japan) according to the manufacturer's instructions. PCR amplification was performed using the SYBR Green PCR master mix Kit (TOYOBO, Japan). All quantization was normalized to the level of endogenous control GAPDH. The primer sequences for the SYBR green qPCR used were as follows: BRD2-F: 5′-[…]-3′ (SEQ ID NO:10); BRD2-R: 5′-[…]-3′ (SEQ ID NO:11); BRD3-F: 5′-[…]-3′ (SEQ ID NO:12); BRD3-R: 5′-[…]-[…]-3′ (SEQ ID NO:13); BRD4-F: 5′-[…]-GAG-3′ (SEQ ID NO:14); BRD4-F: 5′-[…]-3′ (SEQ ID NO: 15); RAC1-F: 5′-[…]-3′ (SEQ ID NO:16); RAC1-R: 5′-[…]-3′ (SEQ ID NO:17); FDFT1-F: 5′-ACTAT-[…]-3′ (SEQ ID NO:18); FDFT1-R: 5′-[…]-[…]-3′ (SEQ ID NO:19); DHCR24-F: 5′-[…]-GAGC-3′ (SEQ ID NO:20); DHCR24-R: 5′-[…]-3′(SEQ ID NO:21); DHCR7-F: 5′-[…]-3′ (SEQ ID NO: 22); DHCR7-R: 5′-[…]-3′ (SEQ ID NO:23); MVD-F: 5′-[…]-3′ (SEQ ID NO:24); MVD-R: 5′-CACAC-[…]-3′ (SEQ ID NO:25); PSA-F: 5′-[…]-[…]-3′ (SEQ ID NO:26); PSA-R: 5′-[…]-3′ (SEQ ID NO:27); TMPRSS2-F: 5′-[…]-3′ (SEQ ID NO: 28); TMPRSS2-R: 5′-[…]-3′ (SEQ ID NO:29); MYC-F: 5′-[…]-3′ (SEQ ID NO:30); MYC-R: 5′-CTTGT-[…]-3′ (SEQ ID NO:31); AR-F: 5′-[…]-TCACC-3′ (SEQ ID NO:32); AR-R: 5′-[…]-3′ (SEQ ID NO: 33); GAPDH-F: 5′-[…]-3′ (SEQ ID NO:34); and GAPDH-R: 5′-[…]-3′ (SEQ ID NO:35).

C4-2 cells [1] = experiment: Cell proliferation assay (MTS) and trypan blue assay; format: cell-based, human; details: SPOP-F133V C4-2 cells; GDC-0068 0.2 μM with JQ1 0.25 μM, 5 days
Procedure: CellTiter 96® AQueous One Solution Cell Proliferation Assay (MTS) (Promega) was used to measure cell growth according to the manufacturer's instructions. Briefly, cells were plated in 96-well plates at a density of 2,000 cells per well. At the indicated times, 20 μL of Cell Titer 96R Aqueous One Solution Reagent was added to medium. After incubating for 1 hour at 37° C. in the cell incubator, cell growth was measured in a microplate reader at 490 nm.
Trypan blue assay was performed to measure cell growth according to the manufacturer's instructions. Briefly, cells were plated in 6-well plates at a density of about 5×10^4 to about 1×10^5 cells per well. At the indicated time points, cells were trypsinized and suspended in 1 mL 1×PBS. 100 μL cells and 100 μL trypan blue solution (Sigma-Aldrich) were mixed, and the number of viable cells was measured using the Bio-Rad automated cell counter.
Cell proliferation was measured by using the MTS assay (Promega). Prostate cancer cells (2,000 per well) were seeded in 96-well plates with 100 μL of culture medium. Each well was added with 20 μL of CellTiter 96R AQueous One Solution Reagent (Promega) and absorbance was measured in a microplate reader at 490 nm.

C4-2 xenograft tumors = experiment: Prostate cancer xenografts in NSG mice; format: in vivo; details: SPOP-F133V C4-2 xenografts; GDC-0068 100 mg/kg with JQ1 50 mg/kg, 5 days a week, day 21
Procedure: 6-week-old NOD-SCID IL-2-receptor gamma null (NSG) mice were generated and randomly divided into different experimental groups as indicated. All mice were housed in standard conditions with a 12-hour light/dark cycle and access to food and water ad libitum. For BRD2/3/4 knockdown studies, C4-2 cells (5×10^6), infected with lentivirus expressing empty vector (EV) or HA-SPOP-F133V mutant in combination with control shRNA or BRD2/3/4-specific shRNA, were mixed with Matrigel (in 100 μL 1×PBS plus 100 μL Matrigel (BD Biosciences)) and injected s.c. into the right flank of mice. After xenografts reached the size of about 100 mm^3, vehicle (10% beta cyclodextrin) or JQ1 (Sigma-Aldrich) at 50 mg/kg body weight was administered by i.p. injection 5 days a week. For studies with tumors treated with JQ1 and AKT inhibitor GDC-0068, C4-2 cells (5×10^6) infected with lentivirus expressing empty vector (EV) or HA-SPOP-F133V mutant were mixed with Matrigel (in 100 μL 1×PBS plus 100 μL Matrigel (BD Biosciences)) and injected s.c. into the right flank of mice. […] Growth in tumor volume was measured in a blinded fashion using digital caliper, and tumor volumes were estimated using the formula (L×W2)/2, where L is length of tumor and W is width. The volumes of tumors were compared, and P values were determined by a two-tailed Student's t test. […]

solid tumors = details: patients with solid tumors; cited from earlier work
C4-2 cells [2] = experiment: Western blot and RT-qPCR of protein and mRNA expression in C4-2 cells; format: cell-based, human; details: 24 hours
Procedure: as §1, §2
(§3) Cells were harvested and lysed by IP buffer (50 mM Tris-HCl, pH 7.4, 150 mM NaCl, 1% Triton X-100, 1% sodium deoxycholate and 1% protease inhibitor cocktails) on ice for more than 15 minutes. Cell lysate was centrifuged for 15 minutes at 13,000 rpm at 4° C., and the supernatant was quantified by BCA protein quantification assay. Equal amounts of protein sample were added into 4× sample buffer and boiled for 5 minutes. The sample was subjected to SDS-PAGE analysis and transferred to nitrocellulose membrane. The membrane was blocked by 5% milk for 1 hour at room temperature and incubated with primary antibody at 4° C. overnight. The next day, the membrane was washed three times with 1×TBST and incubated with horseradish peroxidase-conjugated secondary antibodies for 1 hour at room temperature. The protein bands were visualized by SuperSignal West Pico Stable Peroxide Solution (Thermo Fisher Scientific).
Total RNA was isolated using TRIzol reagent (Thermo Fisher Scientific). The NanoDrop 2000 spectrophotometer (Thermo Fisher Scientific) was used to assess RNA yield and quality. RNA was reversely transcribed using Superscript II reverse transcriptase (Thermo Fisher Scientific) following manufacturer's instructions. Quantitative real-time PCR was performed by mixing cDNA, gene-specific primers and IQ SYRB Green Supermix and detected by iCycler QTX detection system (Bio-Rad). The 2-ΔCt method was used to quantitate fold changes by normalizing to GAPDH.

BRD4 [3] = experiment: Western blot of BRD4 protein, ubiquitination and half-life in DU145 cells; format: cell-based, human
Procedure: Co-Immunoprecipitation (Co-IP) Cells were harvested and lysed by IP buffer (50 mM Tris-HCl, pH 7.4, 150 mM NaCl, 1% Triton X-100, 1% sodium deoxycholate and 1% protease inhibitor cocktails) on ice for more than 15 minutes. Cell lysate was centrifuged for 15 minutes at 13,000 rpm at 4° C., and the supernatant was incubated with primary antibodies and protein A/G agarose beads (Thermo Fisher Scientific) with rotating at 4° C. overnight. The next day, the pellet was washed at least six times with 1×IP buffer on ice, and then subjected to western blotting analysis. Western Blotting
as §3

BRD4 [4] = experiment: Western blot of BRD4 protein in PC-3 cells; format: cell-based, human; details: MG132, 8 h
Procedure: as §3

SPOP and BRD2/3/4 = experiment: Western blot, co-IP and in vivo ubiquitination assay in 293T cells; format: cell-based, human; details: MG132 20 μM, 8 hours
Procedure: To immunoprecipitate the ectopically expressed FLAG-tagged proteins, transfected cells were lysed 24 hours post-transfection in BC100 buffer. The whole-cell lysates were immunoprecipitated with the monoclonal anti-FLAG antibody-conjugated M2 agarose beads (Sigma-Aldrich) at 4° C. overnight. After three washes with lysis buffer, followed by two washes with BC100 buffer, the bound proteins were eluted using FLAG-Peptide (Sigma-Aldrich) prepared in BC100 for 3 hours at 4° C. The eluted protein sample was resolved by SDS-PAGE. To immunoprecipitate the endogenous proteins, cells were lysed with 1× cell lysis buffer (Cell Signaling Technology), and the lysate was centrifuged. The supernatant was precleared with protein A/G beads (Sigma-Aldrich) and incubated with the indicated antibody and protein A/G beads at 4° C. overnight. Beads were washed five times with lysis buffer and resuspended in sample buffer and analyzed by SDS-PAGE.
as §1
For the in vivo ubiquitination assay, C4-2 cells were transfected with plasmids for HA-Ub, FLAG-BRD4, and other indicated proteins. C ells were treated with 20 μM MG132 for 8 hours before being harvested and lysed with lysis buffer (50 mM Tris-HCl, pH 7.5, 150 mM NaCl, 1% NP40, 0.5% sodium deoxycholate, 1× protease inhibitor cocktail (PIC)). The lysate was subjected to co-immunoprecipitation using anti-FLAG-conjugated agarose beads as described in the Co-IP assay.

[5] = DU145 cells, PD0332991 2 μM, 24 hours
[6] = DU145 cells, PD0332991 with JQ1, 24 hours

## CC(C)C[C@H](NC(=O)[C@H](Cc1ccccc1)NC(=O)c1cnccn1)B(O)O [Bortezomib]
BRD2/3/4
  BRD2/3/4 protein level: increased

## CC(C)NC[C@@H](C(=O)N1CCN(c2ncnc3c2[C@H](C)C[C@H]3O)CC1)c1ccc(Cl)cc1 [GDC-0068]
C4-2 cells [1]
  SPOP mutation-conferred resistance to BET inhibitor, cells in culture: completely overcame
C4-2 xenograft tumors
  SPOP mutation-conferred resistance to BET inhibitor, tumors in mice: completely overcame
Solid tumors
  antitumor efficacy: effective antitumor efficacy
C4-2 cells [2]; SPOP-F133V C4-2 cells, GDC-0068 1 μM, Western blot
  SPOP mutation-induced activation of AKT downstream pathways: abolished

## CC(C)C[C@@H](C=O)NC(=O)[C@H](CC(C)C)NC(=O)[C@H](CC(C)C)NC(=O)OCc1ccccc1 [MG132] (Cbz-Leu-Leu-Leu-aldehyde)
BRD4 [3]; DU145 cells, 24 hours, co-treatment with MG132
  PD0332991-induced decrease of BRD4 protein: completely impeded
BRD4 [3]; SPOP F133V-expressing DU145 cells, MG132, 8 hours
  decrease of BRD4 protein levels by DUB3 knockdown: blocked
BRD4 [4]
  downregulation of BRD4 proteins caused by DUB3 knockdown: reversed
SPOP and BRD2/3/4
  decrease of BRD2/3/4 proteins by wild-type SPOP expression: completely reversed
BRD2/3/4
  BRD2/3/4 protein level: increased

## NS(=O)(=O)OC[C@@H]1C[C@@H](n2ccc3c(N[C@H]4CCc5ccccc54)ncnc32)C[C@@H]1O [MLN4924]
BRD2/3/4
  BRD2/3/4 protein level: accumulation

## CC(=O)c1c(C)c2cnc(Nc3ccc(N4CCNCC4)cn3)nc2n(C2CCCC2)c1=O [PD0332991, 6-acetyl-8-cyclopentyl-5-methyl-2-[(5-piperazin-1-ylpyridin-2-yl)amino]pyrido[2,3-d]pyrimidin-7-one]
BRD4 [3]; DU145 cells, DUB3 shRNA, PD0332991 2 μM, 24 hours
  BRD4 protein expression in DUB3 knockdown cells: little or no further reduction
BRD4 [3]; [5]
  BRD4 polyubiquitination: increased
  DUB3-induced upregulation of BRD4 protein: completely blocked
  DUB3-mediated deubiquitination of BRD4: reversed
BRD4 [3]; DU145 cells, PD0332991 2 μM, time-dependent
  BRD4 protein: decreased
BRD4 [3]; [6]
  JQ1-induced inhibition of BRD4 polyubiquitination: almost completely reversed
  JQ1-induced upregulation of BRD4 protein: almost completely abolished

## CC(/C=C/C(=O)NO)=C\[C@@H](C)C(=O)c1ccc(N(C)C)cc1 [trichostatin A]
C4-2 cells [2]; C4-2 cells, TSA 1 μM
  DUB3 protein and mRNA expression: increased
